Like-named read-outs stand apart in the source and are kept apart here.
Legend:
[1] = target: CDK1B (Homo sapiens, UniProt P06493); experiment: ADP Glo kinase assay; type: biochemical; details: calculated from IC50 using the Cheng-Prusoff equation
Method: Kinase assay. The ADP Glo^TM kinase assay (Promega, Madison, WI, USA) was used to assess the inhibition by CDDD11-8 of CDKs 1, 2, 4, 6, 7, and 9, as well as the mutant isoforms of FLT3. The assays were performed in accord with the manufacturer’s protocol (Promega) as described previously. Briefly, serial three-fold dilutions of CDDD11-8 were prepared in 100% DMSO from a 2 mM stock solution, followed by 1:40 dilution into Milli-Q water. Subsequently, 1 µL of each sample was incubated with 4 µL of kinase mixture containing a particular CDK enzyme and its substrate, standard kinase buffer [3 mM MgCl2, 50 mM HEPES-NaOH pH 7.5, 3 mM MnCl2, 3 µM Na-orthovanadate, 1 mM dithiothreitol (DTT)], kinase dilution buffer (containing 0.25 mg/mL PEG20,000, 50 mM HEPES-NaOH pH 7.5, 1 mM DTT), and ATP at 37 °C for 30 to 40 min. The final reaction mixture contained 0.5% DMSO in all samples, and the applied kinase concentrations were 1, 1, 10, 40, 20, and 50 nM for CDK1, 2, 4, 6, 7, and 9, respectively. The reaction was stopped by adding ADP-Glo reagent and the mixture was incubated further in the dark at room temperature for 40 min. As a final step, kinase detection reagent was added to each mixture and incubated at room temperature for 30 to 60 min. Luminescence was read using an EnVision® multilabel plate reader (PerkinElmer, Beaconsfield, UK), and half-maximum inhibitory concentrations (IC50) were calculated using a non-linear regression model with a variable slope, plotting log (inhibitor concentration) vs. response using the following formula: Ar%=Bottom+Top−Bottom/1+Inhibitor Concentration/IC50^HillSlope where the relative activity Ar (%) is the signal relative to the controls, IC50 is the half maximum concentration, Hillslope is the steepness of the dose-response curve, Top and Bottom are plateaus reflecting the maximum and minimum in responses on the Y-axis (GraphPad Prism version 7, San Diego, CA, USA). Ki values were calculated from the IC50 using the Cheng−Prusoff equation [32]. Extensive specificity assessment was carried out by Reaction Biology Corporation (Malvern, PA, USA) with 369 kinases using 1 µM CDDD11-8 concentration in a Kinase Hotspot radiolabel assay (for experimental details, please see (Reaction Biology https://www.reactionbiology.com/). Subsequently, Ki values were determined for kinases with greater than 90% inhibition.

[2] = Blood to plasma ratio; type: in vitro ADME; details: mouse, in mice
[3] = Pharmacokinetics in mice; type: in vivo, BALB/c hairy mice; details: for concentration at 0.1 h: 0.10 h; for half-life: read-out: t½ (converted); for bioavailability: po, read-out: F (oral bioavailability)
Method: Pharmacokinetics. The pharmacokinetics of CDDD11-8 was determined in mice after single oral (PO) and intravenous (IV) doses. CDDD11-8 was administered at a dose of 10 or 100 mg/kg PO or 2 mg/kg IV to BALB/c hairy mice (n = 10 per route of administration; both male and female). The IV dose consisted of CDDD11-8 dissolved in 10/90 N-methyl-2-pyrrolidone (NMP)/acetate buffer (pH 4.5), while the PO doses of CDDD11-8 were dissolved in acetate buffer at pH 4.74. At nominal times, up to three blood samples were collected from individual mice at non-consecutive times from the right cheek, left cheek, and heart of an individual mouse. The concentrations in these samples were measured by validated LC-MS/MS methods (limit of quantification = 5 ng/mL). Pharmacokinetic parameters were estimated after fitting compartmental models to the concentration–time data (Phoenix, Certara, NJ, USA). Specifically, a one-compartmental kinetic model with first-order input was used after an oral dose, and a two-compartmental model was fitted to the IV data. Acceptability of models was evaluated from values for Akaike Information Criterion (AIC), Schwarz’s Bayesian Criterion (SIB), and % Coefficient of Variance (CV) for parameters, where lower values were indicative of a better fit. Other considerations were variances in the concentrations of quality control samples and visual inspection of model fit. Oral bioavailability (F) was calculated from values of AUC after PO and IV administration after correcting for the differences in doses.

[4] = both sexes, BALB/c hairy, mouse, plasma, IV 2 mg/kg, read-out: Plasma Conc.
[5] = both sexes, BALB/c hairy, mouse, plasma, IV 2 mg/kg, ± standard error of the estimate
[6] = both sexes, BALB/c hairy, mouse, plasma, PO 10 mg/kg, read-out: Plasma Conc.
[7] = both sexes, BALB/c hairy, mouse, plasma, PO 100 mg/kg, read-out: Plasma Conc.
[8] = both sexes, BALB/c hairy, mouse, plasma, oral 10 mg/kg, ± standard error of the estimate
[9] = both sexes, BALB/c hairy, mouse, plasma, oral 100 mg/kg, ± standard error of the estimate

Chain of CDK1B (P06493 whole entry, canonical isoform): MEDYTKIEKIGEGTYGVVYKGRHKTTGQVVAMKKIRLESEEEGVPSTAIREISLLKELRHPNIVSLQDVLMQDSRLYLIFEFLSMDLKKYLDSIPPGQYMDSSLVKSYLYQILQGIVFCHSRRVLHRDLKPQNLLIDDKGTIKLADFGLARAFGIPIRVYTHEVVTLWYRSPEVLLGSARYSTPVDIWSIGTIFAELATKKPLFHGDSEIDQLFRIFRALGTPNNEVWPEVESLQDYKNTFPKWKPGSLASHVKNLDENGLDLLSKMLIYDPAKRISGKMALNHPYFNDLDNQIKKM
Chain of CDK1B (P14635 whole entry partner, canonical isoform): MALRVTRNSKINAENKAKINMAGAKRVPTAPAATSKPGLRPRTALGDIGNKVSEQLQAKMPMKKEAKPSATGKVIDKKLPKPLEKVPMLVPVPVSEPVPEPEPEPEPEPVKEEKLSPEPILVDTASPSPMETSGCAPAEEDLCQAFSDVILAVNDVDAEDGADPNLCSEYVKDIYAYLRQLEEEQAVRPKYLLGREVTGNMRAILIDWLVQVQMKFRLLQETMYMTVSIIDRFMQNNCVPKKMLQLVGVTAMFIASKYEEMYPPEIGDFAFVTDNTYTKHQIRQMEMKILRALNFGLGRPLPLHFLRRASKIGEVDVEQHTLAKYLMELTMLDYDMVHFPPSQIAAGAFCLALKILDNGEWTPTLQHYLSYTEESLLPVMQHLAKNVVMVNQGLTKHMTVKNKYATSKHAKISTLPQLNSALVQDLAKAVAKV

## Cc1cnc(N[C@H]2CC[C@H](N)CC2)nc1-c1cnc2ccc(-c3ccccc3)cn12 [CDDD11-8]
[1]
  Ki: > 1000 nM
[2]
  blood plasma ratio: 0.71
[3]
  oral bioavailability predicted from hepatic extraction: about 43%
  plasma exposure after 100 mg/kg PO relative to 10 mg/kg: 19 times
[3]; PO 10 mg/kg
  plasma exposure: 3.4 µM·h
[3]; PO 100 mg/kg
  plasma exposure: 64 µM·h
[3]; blood clearance vs hepatic blood flow 5.4 L/h.kg
  extraction by the liver: ~57%
[3]; both sexes, BALB/c hairy, mouse, IV 2 mg/kg, plasma, ± standard error of the estimate, read-out: CL (converted)
  clearance: 36.8 mL/min/kg
[3]; both sexes, BALB/c hairy, mouse, plasma, IV 2 mg/kg, 0.03 h, read-out: Plasma Conc.
  concentration at 0.03 h: 2290 ng/mL
[3]; both sexes, BALB/c hairy, mouse, plasma, IV 2 mg/kg, 0.07 h, read-out: Plasma Conc.
  concentration at 0.07 h: 2150 ng/mL
[3]; [4]
  concentration at 0.1 h: 1310 ng/mL
  concentration at 5.4 h: 3 ng/mL
[3]; both sexes, BALB/c hairy, mouse, plasma, IV 2 mg/kg, 0.17 h, read-out: Plasma Conc.
  concentration at 0.17 h: 1070 ng/mL
[3]; both sexes, BALB/c hairy, mouse, plasma, IV 2 mg/kg, 0.20 h, read-out: Plasma Conc.
  concentration at 0.2 h: 1020 ng/mL
[3]; both sexes, BALB/c hairy, mouse, plasma, IV 2 mg/kg, 0.30 h, read-out: Plasma Conc.
  concentration at 0.3 h: 781 ng/mL
[3]; both sexes, BALB/c hairy, mouse, plasma, IV 2 mg/kg, 0.53 h, read-out: Plasma Conc.
  concentration at 0.53 h: 367 ng/mL
[3]; both sexes, BALB/c hairy, mouse, plasma, IV 2 mg/kg, 0.68 h, read-out: Plasma Conc.
  concentration at 0.68 h: 271 ng/mL
[3]; both sexes, BALB/c hairy, mouse, plasma, IV 2 mg/kg, 1.4 h, read-out: Plasma Conc.
  concentration at 1.4 h: 132 ng/mL
[3]; both sexes, BALB/c hairy, mouse, plasma, IV 2 mg/kg, 2.1 h, read-out: Plasma Conc.
  concentration at 2.1 h: 50 ng/mL
[3]; both sexes, BALB/c hairy, mouse, plasma, IV 2 mg/kg, 3.4 h, read-out: Plasma Conc.
  concentration at 3.4 h: 20 ng/mL
[3]; both sexes, BALB/c hairy, mouse, plasma, IV 2 mg/kg, 4.1 h, read-out: Plasma Conc.
  concentration at 4.1 h: 11 ng/mL
[3]; both sexes, BALB/c hairy, mouse, plasma, IV 2 mg/kg, 6 h, read-out: Plasma Conc.
  concentration at 6 h: 3.2 ng/mL
[3]; both sexes, BALB/c hairy, mouse, plasma, IV 2 mg/kg, 7 h, read-out: Plasma Conc.
  concentration at 7 h: 2.4 ng/mL
[3]; both sexes, BALB/c hairy, mouse, plasma, IV 2 mg/kg, 7.7 h, read-out: Plasma Conc.
  concentration at 7.7 h: 2.8 ng/mL
[3]; both sexes, BALB/c hairy, mouse, plasma, IV 2 mg/kg, 8 h, read-out: Plasma Conc.
  concentration at 8 h: 2.8 ng/mL
[3]; both sexes, BALB/c hairy, mouse, plasma, IV 2 mg/kg, 8.8 h, read-out: Plasma Conc.
  concentration at 8.8 h: 2 ng/mL
[3]; both sexes, BALB/c hairy, mouse, plasma, IV 2 mg/kg, 9.5 h, read-out: Plasma Conc.
  concentration at 9.5 h: 1.7 ng/mL
[3]; [5]
  AUC: 906 ± 90 ng·h/mL
  half-life: 1.8 ± 0.3 h
[3]; both sexes, BALB/c hairy, mouse, plasma, IV 2 mg/kg, ± standard error of the estimate, read-out: Vss
  Vd: 1.71 ± 0.246 L/kg
[3]; both sexes, BALB/c hairy, mouse, plasma, PO 10 mg/kg, 0.13 h, read-out: Plasma Conc.
  concentration at 0.13 h: 140 ng/mL
[3]; both sexes, BALB/c hairy, mouse, plasma, PO 10 mg/kg, 0.28 h, read-out: Plasma Conc.
  concentration at 0.28 h: 300 ng/mL
[3]; both sexes, BALB/c hairy, mouse, plasma, PO 10 mg/kg, 0.40 h, read-out: Plasma Conc.
  concentration at 0.4 h: 139 ng/mL
[3]; both sexes, BALB/c hairy, mouse, plasma, PO 10 mg/kg, 0.65 h, read-out: Plasma Conc.
  concentration at 0.65 h: 389 ng/mL
[3]; [6]
  concentration at 1.2 h: 740 ng/mL
  concentration at 1.9 h: 356 ng/mL
  concentration at 2.6 h: 450 ng/mL
  concentration at 5.4 h: 17 ng/mL
  concentration at 7.8 h: 1.6 ng/mL
  concentration at 24.6 h: 0 ng/mL
[3]; both sexes, BALB/c hairy, mouse, plasma, PO 10 mg/kg, 3.3 h, read-out: Plasma Conc.
  concentration at 3.3 h: 95 ng/mL
[3]; both sexes, BALB/c hairy, mouse, plasma, PO 10 mg/kg, 4.0 h, read-out: Plasma Conc.
  concentration at 4 h: 169 ng/mL
[3]; both sexes, BALB/c hairy, mouse, plasma, PO 10 mg/kg, 4.7 h, read-out: Plasma Conc.
  concentration at 4.7 h: 34 ng/mL
[3]; both sexes, BALB/c hairy, mouse, plasma, PO 10 mg/kg, 6.2 h, read-out: Plasma Conc.
  concentration at 6.2 h: 20 ng/mL
[3]; both sexes, BALB/c hairy, mouse, plasma, PO 10 mg/kg, 6.8 h, read-out: Plasma Conc.
  concentration at 6.8 h: 3.4 ng/mL
[3]; both sexes, BALB/c hairy, mouse, plasma, PO 10 mg/kg, 8.5 h, read-out: Plasma Conc.
  concentration at 8.5 h: 1.8 ng/mL
[3]; both sexes, BALB/c hairy, mouse, plasma, PO 10 mg/kg, 9.7 h, read-out: Plasma Conc.
  concentration at 9.7 h: 1 ng/mL
[3]; both sexes, BALB/c hairy, mouse, plasma, PO 10 mg/kg, 15.8 h, read-out: Plasma Conc.
  concentration at 15.8 h: 0 ng/mL
[3]; both sexes, BALB/c hairy, mouse, plasma, PO 10 mg/kg, 21.0 h, read-out: Plasma Conc.
  concentration at 21 h: 0 ng/mL
[3]; [7]
  concentration at 0.1 h: 810 ng/mL
  concentration at 1.2 h: 1810 ng/mL
  concentration at 1.9 h: 3010 ng/mL
  concentration at 2.6 h: 3680 ng/mL
  concentration at 7.8 h: 717 ng/mL
  concentration at 24.6 h: 74 ng/mL
[3]; both sexes, BALB/c hairy, mouse, plasma, PO 100 mg/kg, 0.38 h, read-out: Plasma Conc.
  concentration at 0.38 h: 925 ng/mL
[3]; both sexes, BALB/c hairy, mouse, plasma, PO 100 mg/kg, 0.73 h, read-out: Plasma Conc.
  concentration at 0.73 h: 2660 ng/mL
[3]; both sexes, BALB/c hairy, mouse, plasma, PO 100 mg/kg, 2.9 h, read-out: Plasma Conc.
  concentration at 2.9 h: 2480 ng/mL
[3]; both sexes, BALB/c hairy, mouse, plasma, PO 100 mg/kg, 4.9 h, read-out: Plasma Conc.
  concentration at 4.9 h: 4830 ng/mL
[3]; both sexes, BALB/c hairy, mouse, plasma, PO 100 mg/kg, 6.1 h, read-out: Plasma Conc.
  concentration at 6.1 h: 2160 ng/mL
[3]; both sexes, BALB/c hairy, mouse, plasma, PO 100 mg/kg, 7.0 h, read-out: Plasma Conc.
  concentration at 7 h: 881 ng/mL
[3]; both sexes, BALB/c hairy, mouse, plasma, PO 100 mg/kg, 8.3 h, read-out: Plasma Conc.
  concentration at 8.3 h: 1200 ng/mL
[3]; both sexes, BALB/c hairy, mouse, plasma, PO 100 mg/kg, 8.9 h, read-out: Plasma Conc.
  concentration at 8.9 h: 854 ng/mL
[3]; both sexes, BALB/c hairy, mouse, plasma, PO 100 mg/kg, 9.6 h, read-out: Plasma Conc.
  concentration at 9.6 h: 248 ng/mL
[3]; both sexes, BALB/c hairy, mouse, plasma, PO 100 mg/kg, 16.0 h, read-out: Plasma Conc.
  concentration at 16 h: 77 ng/mL
[3]; both sexes, BALB/c hairy, mouse, plasma, PO 100 mg/kg, 22.1 h, read-out: Plasma Conc.
  concentration at 22.1 h: 153 ng/mL
[3]; both sexes, BALB/c hairy, mouse, plasma, PO 100 mg/kg, 29.0 h, read-out: Plasma Conc.
  concentration at 29 h: 62 ng/mL
[3]; both sexes, BALB/c hairy, mouse, plasma, PO 100 mg/kg, 41.2 h, read-out: Plasma Conc.
  concentration at 41.2 h: 0 ng/mL
[3]; both sexes, BALB/c hairy, mouse, plasma, intravenous, 2 mg/kg, read-out: volume of distribution
  Vd: 1.71 L/kg
[3]; [8]
  AUC: 1360 ± 249 ng·h/mL
  Cmax: 496 ± 108 ng/mL
  Tmax: 1 ± 0.1 h
  half-life: 0.68 ± 0.3 h
[3]; [9]
  AUC: 25400 ng·h/mL
  Cmax: 3600 ± 822 ng/mL
  Tmax: 2 ± 0.6 h
  half-life: 6.8 ± 3.7 h
[3]; both sexes, BALB/c hairy, mouse, plasma, 10 mg/kg, oral 10 mg/kg
  bioavailability: ~30%
[3]; both sexes, BALB/c hairy, mouse, plasma, 100 mg/kg, oral 100 mg/kg
  bioavailability: 56%
[3]; both sexes, BALB/c hairy, mouse, whole blood, intravenous, 2 mg/kg, plasma clearance divided by B/P, read-out: blood clearance (converted)
  clearance: 51.7 mL/min/kg

Reference: publication PMC8909834, “An Orally Bioavailable and Highly Efficacious Inhibitor of CDK9/FLT3 for the Treatment of Acute Myeloid Leukemia” (Cancers, 2022)
